Laboratory results from US11980636B2, “Treatment of hematological disorders” (Jazz Pharmaceuticals Ireland Limited, priority 2020, dated 2024).
Where two headings read alike, the source gives them in different places. One block for each molecule: values may come before it.

How the values were obtained:
[1] = for Vp (Vp2), peripheral volume of distribution: population mean coefficient at BSA 1.95 (daunorubicin dose 86 mg), following CPX-351; for CLd (CLd2), distribution clearance: population mean coefficient at BSA 1.95, following CPX-351
clinical = conditions: human, in vivo, intravenous; for Vd: 195 mg
SKM-1 cells = assay: CellTiter-Glo cell viability, 72 hours; assay type: cell-based; conditions: Homo sapiens
Description: (§1) AML cell lines used were: HL-60 (ATCC), SKM-1 (Sekisui XenoTech) and KG-1 (ATCC). Acute Lymphoid Leukemia (ALL) cell lines used were: CCRF-CEM (ATCC), MOLT-3 (ATCC), and Jurkat E6-1 (ATCC). […] After 24 hours, cells were dosed with CPX-351, venetoclax, azacitidine, decitabine, and/or cytarabine. CPX-351 and cytarabine were each dosed in a titration starting at 50 μM (for CPX-351, this was measured by its cytarabine content), with 8 additional serial dilutions of 5× each and a final group with no treatment. […] For the combination treatment of CPX-351 and venetoclax, the same titrations were used as in single-agent treatment. About 72 hours after dosing, cell viability was measured by CellTiter-Glo assay (Promega) according to manufacturer instructions; luminescence was measured and IC50 values were estimated by Cytation Multi-Mode reader (BioTek).

MOLT-3 cells = assay: CellTiter-Glo cell viability, 72 hours; assay type: cell-based; conditions: Homo sapiens
Description: as §1

KG-1 cells = assay: CellTiter-Glo cell viability, 72 hours; assay type: cell-based; conditions: Homo sapiens
Description: as §1

HL-60 cells = assay: CellTiter-Glo cell viability, 72 hours; assay type: cell-based; conditions: Homo sapiens
Description: as §1

CCRF-CEM cells = assay: CellTiter-Glo cell viability, 72 hours; assay type: cell-based; conditions: Homo sapiens, read-out: IC50 values
Description: as §1

Jurkat E6-1 cells = assay: CellTiter-Glo cell viability, 72 hours; assay type: cell-based; conditions: Homo sapiens
Description: as §1

GCSF receptor = target: T1, GCSF receptor (Homo sapiens, UniProt Q99062); conditions: population mean, cited from earlier work; for Kd: read-out: KD, equilibrium dissociation constant for GCSF and GCSF receptor
T1 sequence (Q99062 25-836): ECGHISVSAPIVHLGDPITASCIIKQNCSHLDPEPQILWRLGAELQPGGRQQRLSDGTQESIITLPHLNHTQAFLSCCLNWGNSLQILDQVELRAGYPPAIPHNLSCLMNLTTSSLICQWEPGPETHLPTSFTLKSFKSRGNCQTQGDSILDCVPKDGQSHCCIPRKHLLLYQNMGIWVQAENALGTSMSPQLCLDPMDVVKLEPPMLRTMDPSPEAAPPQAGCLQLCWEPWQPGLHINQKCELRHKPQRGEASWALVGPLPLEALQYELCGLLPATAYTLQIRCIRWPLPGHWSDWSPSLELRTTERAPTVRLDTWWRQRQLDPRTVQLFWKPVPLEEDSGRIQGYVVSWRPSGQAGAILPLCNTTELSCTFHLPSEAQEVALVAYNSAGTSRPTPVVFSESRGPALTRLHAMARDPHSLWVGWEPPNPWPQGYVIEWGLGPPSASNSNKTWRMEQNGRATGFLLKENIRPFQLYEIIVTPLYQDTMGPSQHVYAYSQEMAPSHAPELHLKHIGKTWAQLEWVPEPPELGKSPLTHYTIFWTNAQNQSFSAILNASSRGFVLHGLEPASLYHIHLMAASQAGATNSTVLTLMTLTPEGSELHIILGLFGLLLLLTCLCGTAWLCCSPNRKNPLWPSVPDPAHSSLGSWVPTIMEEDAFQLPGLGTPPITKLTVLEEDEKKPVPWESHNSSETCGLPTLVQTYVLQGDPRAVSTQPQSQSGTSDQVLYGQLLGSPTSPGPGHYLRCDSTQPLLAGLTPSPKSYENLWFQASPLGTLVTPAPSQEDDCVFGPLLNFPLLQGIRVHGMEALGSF

[2] = in vivo; cited from earlier work
[3] = SKM-1, AML, CPX-351 by cytarabine content, read-out: IC50 values
[4] = MOLT-3, ALL, CPX-351 by cytarabine content, read-out: IC50 values
[5] = KG-1, AML, CPX-351 by cytarabine content, read-out: IC50 values
[6] = HL-60, HL60, AML, CPX-351 by cytarabine content, read-out: IC50 values
[7] = ALL, CPX-351 by cytarabine content
[8] = Jurkat E6-1, ALL, CPX-351 by cytarabine content, read-out: IC50 values

Molecule: Nc1ccn([C@@H]2O[C@H](CO)[C@@H](O)[C@@H]2O)c(=O)n1 [Cytarabine, 1-β-D-arabinofuranosylcytosine]
- Vp (Vp2), peripheral volume of distribution [1]: 0.214 · (BSA/1.95)^1 L
- CLd (CLd2), distribution clearance [1]: 0.00646 · (BSA/1.95)^1 L/h
- clearance (clinical): 1.77 mL/min
- Vd (clinical): 5.12 L
- IC50 (SKM-1 cells; [3]): 540 nM
- IC50 (MOLT-3 cells; [4]): 80 nM
- IC50 (KG-1 cells; [5]): 240 nM
- IC50 (HL-60 cells; [6]): 850 nM
- IC50 (CCRF-CEM cells; [7]): 30 nM
- IC50 (Jurkat E6-1 cells; [8]): 40 nM

Molecule: Nc1ncn([C@H]2C[C@H](O)[C@@H](CO)O2)c(=O)n1 [Decitabine]
- IC50 (SKM-1 cells; SKM-1, read-out: IC50 values): 240 nM
- IC50 (MOLT-3 cells; MOLT-3, read-out: IC50 values): 230 nM
- IC50 (KG-1 cells; KG-1, read-out: IC50 values): 360 nM
- IC50 (HL-60 cells; HL-60, read-out: IC50 values): 820 nM
- IC50 (CCRF-CEM cells): 40 nM
- IC50 (Jurkat E6-1 cells; Jurkat E6.1, read-out: IC50 values): 100 nM

B1: Filgrastim: exogenous GCSF agent (protein, UniProt P09919 31-207, looked up)
Granulocyte …: TPLGPASSLPQSFLLKCLEQVRKIQGDGAALQEKLVSECATYKLCHPEELVLLGHSLGIPWAPLSSCPSQALQLAGCLSQLHSGLFLYQGLLQALEGISPELGPTLDTLQLDVADFATTIWQQMEELGMAPALQPTQGAMPAFASAFQRRAGGVLVASHLQSFLEVSYRVLRHLAQP
modifications: filgrastim, N-terminal Met
notes: exogenous GCSF agent
- kint, first-order rate constant for internalization of GCSF receptor complexed with filgrastim or pegfilgrastim (GCSF receptor): 0.113 h⁻¹
- Kd (GCSF receptor): 0.0237 nM
- CL, clearance [2]: 0.833 · (WTKG/70)^0.641 L/h
- D2, duration of the zero-order absorption process [2]: 6.6 h
- F1, bioavailability of first-order absorption process [2]: 0.105
- F2, bioavailability of zero-order absorption process [2]: 0.586
- Vc, central volume of distribution [2]: 3.12 · (WTKG/70)^0.943 L
- ka, first-order absorption rate constant [2]: 0.403 h⁻¹

B2: Pegfilgrastim: exogenous GCSF agent (protein, UniProt P09919 31-207, looked up)
Granulocyte …: TPLGPASSLPQSFLLKCLEQVRKIQGDGAALQEKLVSECATYKLCHPEELVLLGHSLGIPWAPLSSCPSQALQLAGCLSQLHSGLFLYQGLLQALEGISPELGPTLDTLQLDVADFATTIWQQMEELGMAPALQPTQGAMPAFASAFQRRAGGVLVASHLQSFLEVSYRVLRHLAQP
modifications: pegfilgrastim; PEGylated, N-terminal Met
notes: exogenous GCSF agent
- kint, first-order rate constant for internalization of GCSF receptor complexed with filgrastim or pegfilgrastim (GCSF receptor): 0.113 h⁻¹
- Kd (GCSF receptor): 0.0959 nM
- F1, bioavailability of first-order absorption process [2]: 0.646
- Vc, central volume of distribution [2]: 5.76 · (WTKG/70)^0.943 L
- clearance [2]: 6.03 mL/min
- ka, first-order absorption rate constant [2]: 0.0188 h⁻¹

The next lines start with results.

- IC50 (SKM-1 cells; [3]): 1500 nM
- IC50 (MOLT-3 cells; [4]): 1000 nM
- IC50 (HL-60 cells; [6]): 50 nM
- IC50 (CCRF-CEM cells; [7]): 2800 nM
- IC50 (Jurkat E6-1 cells; [8]): 3500 nM
Molecule: CC1(C)CCC(CN2CCN(c3ccc(C(=O)NS(=O)(=O)c4ccc(NCC5CCOCC5)c([N+](=O)[O-])c4)c(Oc4cnc5[nH]ccc5c4)c3)CC2)=C(c2ccc(Cl)cc2)C1 [Venetoclax]
- IC50 (KG-1 cells; [5]): 2100 nM

- IC50 (SKM-1 cells; [3]): 420 nM
- IC50 (MOLT-3 cells; [4]): 4030 nM
- IC50 (HL-60 cells; [6]): 1420 nM
- IC50 (CCRF-CEM cells; [7]): 1580 nM
- IC50 (Jurkat E6-1 cells; [8]): 980 nM
Molecule: Nc1ncn([C@@H]2O[C@H](CO)[C@@H](O)[C@H]2O)c(=O)n1 [Azacitidine]
- IC50 (KG-1 cells; [5]): 4000 nM

- Vp (Vp2), peripheral volume of distribution [1]: 0.523 · (BSA/1.95)^1 · L
- CLd (CLd2), distribution clearance [1]: 0.0258 · (BSA/1.95)^1 L/h
- clearance (clinical): 2.42 mL/min
- Vd (clinical): 4.34 L
Molecule: COc1cccc2c1C(=O)c1c(O)c3c(c(O)c1C2=O)C[C@@](O)(C(C)=O)C[C@@H]3O[C@H]1C[C@H](N)[C@H](O)[C@H](C)O1 [Daunorubicin]
